# Results: US20230365592A1 (Agios Pharmaceuticals, Inc., priority 2022, published 2023)
# Target: T1, human PAH with the R408W mutation (Homo sapiens, UniProt P00439, R408W)
# T1 construct: expressed in transfected cells
# T1 sequence (P00439 1-452 R408W): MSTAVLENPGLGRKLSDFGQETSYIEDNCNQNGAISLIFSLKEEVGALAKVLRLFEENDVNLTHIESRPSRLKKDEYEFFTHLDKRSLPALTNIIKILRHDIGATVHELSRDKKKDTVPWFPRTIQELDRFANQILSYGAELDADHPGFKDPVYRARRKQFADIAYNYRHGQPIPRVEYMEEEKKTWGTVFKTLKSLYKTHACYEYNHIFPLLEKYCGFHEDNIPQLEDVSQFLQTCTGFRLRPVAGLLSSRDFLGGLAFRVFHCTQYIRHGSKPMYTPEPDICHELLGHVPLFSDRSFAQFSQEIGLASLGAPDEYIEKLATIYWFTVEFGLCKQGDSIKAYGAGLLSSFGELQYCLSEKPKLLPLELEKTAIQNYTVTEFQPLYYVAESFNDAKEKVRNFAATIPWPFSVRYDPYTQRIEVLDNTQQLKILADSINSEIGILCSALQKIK
# Assay: Cell Based Phenylalanine Flux Assay;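 also: after compound treatment, cells received sepiapterin plus isotope-labelled Phenylalanine for 4 hours, then labelled Tyrosine in the medium was quantified, 10-point 2-fold dilution series run in duplicate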
# Conditions: A375 cells expressing human PAH R408W; 24 hrs compound incubation; 13C-Tyrosine by LC-MS; average where tested multiple times; read-out: AC50
row,Compound,AC50 [µM]
1,"Cn1nccc1-c1nnc(C(=O)N2CCc3[nH]cnc3[C@@H]2c2cc3ccccn3n2)o1 [Example 2005, (R)-(5-(1-methyl-1H-pyrazol-5-yl)-1,3,4-oxadiazol-2-yl)(4-(pyrazolo[1,5-a]pyridin-2-yl)-1,4,6,7-tetrahydro-5H-imidazo[4,5-c]pyridin-5-yl)methanone]",> 5
2,"Cc1cc(-c2nnc(C(=O)N3CCc4[nH]cnc4[C@H]3c3cc4c(C(C)C)cccn4n3)o2)nn1C [Example 2007, (S)-(5-(1,5-dimethyl-1H-pyrazol-3-yl)-1,3,4-oxadiazol-2-yl)(4-(4-isopropylpyrazolo[1,5-a]pyridin-2-yl)-1,4,6,7-tetrahydro-5H-imidazo[4,5-c]pyridin-5-yl)methanone]",< 0.5
3,"Fc1ccc(-c2nnc(N3CCc4[nH]cnc4[C@H]3c3cc4c(Cl)cccn4n3)o2)cc1 [Example 2009, (S)-2-(4-(4-chloropyrazolo[1,5-a]pyridin-2-yl)-1,4,6,7-tetrahydro-5H-imidazo[4,5-c]pyridin-5-yl)-5-(4-fluorophenyl)-1,3,4-oxadiazole]",< 0.5
4,"Cc1cccc2cc([C@@H]3c4nc[nH]c4CCN3c3nnc(-c4ccc(F)cc4)o3)nn12 [Example 2010, (S)-2-(4-fluorophenyl)-5-(4-(7-methylpyrazolo[1,5-a]pyridin-2-yl)-1,4,6,7-tetrahydro-5H-imidazo[4,5-c]pyridin-5-yl)-1,3,4-oxadiazole]",< 0.5
5,"Cc1cccc2cc([C@H]3c4nc[nH]c4CCN3c3nnc(-c4ccc(F)cc4)o3)nn12 [Example 2011, (R)-2-(4-fluorophenyl)-5-(4-(7-methylpyrazolo[1,5-a]pyridin-2-yl)-1,4,6,7-tetrahydro-5H-imidazo[4,5-c]pyridin-5-yl)-1,3,4-oxadiazole]",> 5
6,"FC(F)(F)c1ccc(N2CCc3[nH]cnc3[C@H]2c2cc3c(C(F)(F)F)cccn3n2)nc1 [Example 2013, (S)-4-(4-(trifluoromethyl)pyrazolo[1,5-a]pyridin-2-yl)-5-(5-(trifluoromethyl)pyridin-2-yl)-4,5,6,7-tetrahydro-1H-imidazo[4,5-c]pyridine]",< 0.5
7,"O=C(c1ocnc1C1CC1)N1CCc2[nH]cnc2[C@H]1c1cc2c(C(F)(F)F)cccn2n1 [Example 2014, (S)-(4-cyclopropyloxazol-5-yl)(4-(4-(trifluoromethyl)pyrazolo[1,5-a]pyridin-2-yl)-1,4,6,7-tetrahydro-5H-imidazo[4,5-c]pyridin-5-yl)methanone]",< 0.5
8,"Cn1ccc(-c2nnc(C(=O)N3CCc4[nH]cnc4[C@H]3c3cc4ccccn4n3)s2)n1 [Example 2016, (S)-(5-(1-methyl-1H-pyrazol-3-yl)-1,3,4-thiadiazol-2-yl)(4-(pyrazolo[1,5-a]pyridin-2-yl)-1,4,6,7-tetrahydro-5H-imidazo[4,5-c]pyridin-5-yl)methanone]",< 0.5
9,"Cn1ccc(-c2nnc(C(=O)N3CCc4[nH]cnc4[C@@H]3c3cc4ccccn4n3)s2)n1 [Example 2017, (R)-(5-(1-methyl-1H-pyrazol-3-yl)-1,3,4-thiadiazol-2-yl)(4-(pyrazolo[1,5-a]pyridin-2-yl)-1,4,6,7-tetrahydro-5H-imidazo[4,5-c]pyridin-5-yl)methanone]",> 5
10,"Cn1cc(-c2nnc(C(=O)N3CCc4[nH]cnc4[C@H]3c3cc4c(F)cccn4n3)s2)cn1 [Example 2018, (S)-(4-(4-fluoropyrazolo[1,5-a]pyridin-2-yl)-1,4,6,7-tetrahydro-5H-imidazo[4,5-c]pyridin-5-yl)(5-(1-methyl-1H-pyrazol-4-yl)-1,3,4-thiadiazol-2-yl)methanone]",< 0.5
11,"Cn1cc(-c2nnc(C(=O)N3CCc4[nH]cnc4[C@@H]3c3cc4c(F)cccn4n3)s2)cn1 [Example 2019, (R)-(4-(4-fluoropyrazolo[1,5-a]pyridin-2-yl)-1,4,6,7-tetrahydro-5H-imidazo[4,5-c]pyridin-5-yl)(5-(1-methyl-1H-pyrazol-4-yl)-1,3,4-thiadiazol-2-yl)methanone]",> 5
12,"Cc1cccn2nc([C@@H]3c4nc[nH]c4CCN3C(=O)c3nc4ccccc4o3)cc12 [Example 2020, (S)-benzo[d]oxazol-2-yl(4-(4-methylpyrazolo[1,5-a]pyridin-2-yl)-1,4,6,7-tetrahydro-5H-imidazo[4,5-c]pyridin-5-yl)methanone]",< 0.5
13,"O=C(c1nc2ccccc2s1)N1CCc2[nH]cnc2[C@H]1c1cc2c(C(F)F)cccn2n1 [Example 2022, (S)-benzo[d]thiazol-2-yl(4-(4-(difluoromethyl)pyrazolo[1,5-a]pyridin-2-yl)-1,4,6,7-tetrahydro-5H-imidazo[4,5-c]pyridin-5-yl)methanone]",0.5 to 1
14,"O=C(c1nc2ccccc2s1)N1CCc2[nH]cnc2[C@@H]1c1cc2c(C(F)F)cccn2n1 [Example 2023, (R)-benzo[d]thiazol-2-yl(4-(4-(difluoromethyl)pyrazolo[1,5-a]pyridin-2-yl)-1,4,6,7-tetrahydro-5H-imidazo[4,5-c]pyridin-5-yl)methanone]",> 5
15,"Cc1cccn2nc([C@@H]3c4nc[nH]c4CCN3C(=O)C3CC3)cc12 [Example 2024, (S)-cyclopropyl(4-(4-methylpyrazolo[1,5-a]pyridin-2-yl)-1,4,6,7-tetrahydro-5H-imidazo[4,5-c]pyridin-5-yl)methanone]",< 0.5
16,"Cc1cccn2nc([C@@H]3c4nc[nH]c4CCN3C(=O)[C@H]3CC3(F)F)cc12 [Example 2027, ((R)-2,2-difluorocyclopropyl)((S)-4-(4-methylpyrazolo[1,5-a]pyridin-2-yl)-1,4,6,7-tetrahydro-5H-imidazo[4,5-c]pyridin-5-yl)methanone]",0.5 to 1
17,"Cc1cccn2nc([C@@H]3c4nc[nH]c4CCN3C(=O)[C@@H]3CC3(F)F)cc12 [Example 2028, ((S)-2,2-difluorocyclopropyl)((S)-4-(4-methylpyrazolo[1,5-a]pyridin-2-yl)-1,4,6,7-tetrahydro-5H-imidazo[4,5-c]pyridin-5-yl)methanone]",< 0.5
18,"Cc1cccn2nc([C@H]3c4nc[nH]c4CCN3C(=O)[C@@H]3CC3(F)F)cc12 [Example 2029, ((S)-2,2-difluorocyclopropyl)((R)-4-(4-methylpyrazolo[1,5-a]pyridin-2-yl)-1,4,6,7-tetrahydro-5H-imidazo[4,5-c]pyridin-5-yl)methanone]",> 5
19,"O=C([C@@H]1CC1(F)F)N1CCc2[nH]cnc2[C@@H]1c1cc2c(F)cccn2n1 [Example 2031, ((S)-2,2-difluorocyclopropyl)((R)-4-(4-fluoropyrazolo[1,5-a]pyridin-2-yl)-1,4,6,7-tetrahydro-5H-imidazo[4,5-c]pyridin-5-yl)methanone]",1 to 5
20,"O=C(c1cnc(-c2ccccn2)o1)N1CCc2[nH]cnc2[C@H]1c1cc2c(F)cccn2n1 [Example 2032, (S)-(4-(4-fluoropyrazolo[1,5-a]pyridin-2-yl)-1,4,6,7-tetrahydro-5H-imidazo[4,5-c]pyridin-5-yl)(2-(pyridin-2-yl)oxazol-5-yl)methanone]",< 0.5
21,"O=C(c1cnc(-c2ccccn2)o1)N1CCc2[nH]cnc2[C@@H]1c1cc2c(F)cccn2n1 [Example 2033, (R)-(4-(4-fluoropyrazolo[1,5-a]pyridin-2-yl)-1,4,6,7-tetrahydro-5H-imidazo[4,5-c]pyridin-5-yl)(2-(pyridin-2-yl)oxazol-5-yl)methanone]",> 5
22,"O=C(c1cnc(-c2ccccn2)o1)N1CCc2[nH]cnc2[C@H]1c1cc2c(C(F)F)cccn2n1 [Example 2034, (S)-(4-(4-(difluoromethyl)pyrazolo[1,5-a]pyridin-2-yl)-1,4,6,7-tetrahydro-5H-imidazo[4,5-c]pyridin-5-yl)(2-(pyridin-2-yl)oxazol-5-yl)methanone]",0.5 to 1
23,"O=C(c1cnc(-c2ccccn2)o1)N1CCc2[nH]cnc2[C@@H]1c1cc2c(C(F)(F)F)cccn2n1 [Example 2037, (R)-(2-(pyridin-2-yl)oxazol-5-yl)(4-(4-(trifluoromethyl)pyrazolo[1,5-a]pyridin-2-yl)-1,4,6,7-tetrahydro-5H-imidazo[4,5-c]pyridin-5-yl)methanone]",> 5
24,"O=C(c1ocnc1C1CC1)N1CCc2[nH]cnc2[C@@H]1c1cc2c(Cl)cccn2n1 [Example 2041, (R)-(4-(4-chloropyrazolo[1,5-a]pyridin-2-yl)-1,4,6,7-tetrahydro-5H-imidazo[4,5-c]pyridin-5-yl)(4-cyclopropyloxazol-5-yl)methanone]",1 to 5
25,"O=C(c1ocnc1C1CC1)N1CCc2[nH]cnc2[C@H]1c1cc2cccc(Cl)n2n1 [Example 2042, (S)-(4-(7-chloropyrazolo[1,5-a]pyridin-2-yl)-1,4,6,7-tetrahydro-5H-imidazo[4,5-c]pyridin-5-yl)(4-cyclopropyloxazol-5-yl)methanone]",0.5 to 1
26,"O=C(c1ocnc1C1CC1)N1CCc2[nH]cnc2[C@@H]1c1cc2cccc(Cl)n2n1 [Example 2043, (R)-(4-(7-chloropyrazolo[1,5-a]pyridin-2-yl)-1,4,6,7-tetrahydro-5H-imidazo[4,5-c]pyridin-5-yl)(4-cyclopropyloxazol-5-yl)methanone]",1 to 5
27,"Cn1cc(-c2nnc(C(=O)N3CCc4[nH]cnc4[C@@H]3c3cc4ccccn4n3)s2)cn1 [Example 2044, (R)-(5-(1-methyl-1H-pyrazol-4-yl)-1,3,4-thiadiazol-2-yl)(4-(pyrazolo[1,5-a]pyridin-2-yl)-1,4,6,7-tetrahydro-5H-imidazo[4,5-c]pyridin-5-yl)methanone]",> 5
